The test system of assay [1] is ALPP. Briefly: ALPP expression in cancer cell lines after drug treatment (immunoblot, immunofluorescence, flow cytometry, qPCR, surface proteomics). Format: cell-based, human. The settings on record: for ALPP expression after PI3K/AKT or MEK/ERK inhibition: HCC827 and H1650 (FIG. 8D: HCC827 and PC9); for ALPP expression after drug washout and re-treatment: 48 hours treatment, 48 hours without inhibitor; for ALPP and percentage of ALPP+ cells over time: one to four days, 30 nM; for ALPP induction by other EGFR inhibitors (immunoblots): EGFR-mutant H1650 and HCC827; for fold increase in ALPP expression: EGFR TKI treatment (FIG. 7D, FIG. 15B: 30 nM, 48 hours). An excerpt:
ALPP and ALPPL2 expression analysis in whole cell extracts and in the surfaceome compartment was done by mass spectrometry as previously described^19-23. Each dataset was normalized to the total number of spectral counts for each compartment^24.
Images were acquired in z-series on a spinning-disk confocal system.
Probe for ALPP was purchased from Thermo Fisher Scientific (Hs03046558_s1).

For assay [2], the system named is ALPP. To be noted: PC9 xenograft tumors; GSE161584; cited from earlier work.
Assay [3] relates to AKT (Ser473) and ERK (T202/Y204) phosphorylation. Briefly: Immunoblots for AKT and ERK phosphorylation in LUAD cells. The assay is classed as cell-based, human. To be noted: H2291 and H1650; EGF 10 or 20 ng/mL, gefitinib 0.5 or 1 μM. For orientation: A western blot detects proteins with antibodies after separation by electrophoresis.
Another assay concerns ALPP promoter. The experiment in a line: ChIP-qPCR for FoxO3a binding to the promoter region of ALPP gene. Format: cell-based, human. To be noted: H1650 and HCC827; 1 μM, 6 hours. An excerpt:
Subsequently, the DNA-protein complexes were enriched with Protein A/G magnetic Beads and DNA was recovered by the DNA Clean-up column.
A general note: Quantitative PCR measures a nucleic acid by following its amplification.

The test system of assay [4] is ALPP. The experiment in a line: IHC for ALPP in tumor and normal tissues of gefitinib-treated H1650 tumor-bearing mice. The assay is classed as in vivo, BALB/c nude mice. To be noted: 50 mg/kg daily for 10 days. How it is done:
IHC staining was performed as previously described 25.

The test system of another assay is FoxO3a. Briefly: FoxO3a phosphorylation, localisation and transcription in LUAD cells.
In assay [5] the test system is HCC827 and PC9 cells. The experiment in a line: Flow cytometry-based cell cycle analysis. Set-up: species or system human. To be noted: 30 nM. In general terms: A flow cytometer gives signals particle by particle.
The subject of assay [6] is HCC827 and PC9 cells. To be noted: 100 nM.
In assay [7] the test system is ALPP. To be noted: cited from earlier work.
Where [8] appears, read: EGFR mut H1650, 24- and 48-hour treatment.

For `CCn1cc(C(=O)O)c(=O)c2c(N)c(F)c(NC3CCCCC3)cc21` [AS1842856], in the assay with ALPP [1] (LUAD cells (HCC827 and PC9), 48 hours), the “ALPP protein expression after FoxO inhibition” value is “diminished ALPP protein expression”. The “effect on gefitinib-mediated ALPP upregulation” value with ALPP [1] (LUAD cells (HCC827 and PC9), with gefitinib, 48 hours) is “blunted gefitinib-mediated ALPP upregulation”.
Consider `Cc1cc(C(=O)NOCCO)c(Nc2ccc(I)cc2F)n(C)c1=O` [AZD8330], for which the “ALPP expression after PI3K/AKT or MEK/ERK inhibition” value in the assay with ALPP [1] (100 nM, 48 hours) is recorded as “drastic induction of ALPP expression”.
Still for that read-out and setting: for `Nc1cc(C(F)(F)F)c(-c2cc(N3CCOCC3)nc(N3CCOCC3)n2)cn1` [NVP-BKM120] the value was “drastic induction of ALPP expression”.
Still for that read-out and setting: for `O=C(Nc1ccc2[nH]nc(-c3ccncc3)c2c1)[C@@H]1CCN(CC(=O)N2CCN(c3ccc(-c4ncccn4)cc3)CC2)C1` [SCH772984] the value was “drastic induction of ALPP expression”.
For `C#Cc1cccc(Nc2ncnc3cc(OCCOC)c(OCCOC)cc23)c1` [erlotinib], in the assay on ALPP [2], the “ALPP mRNA expression in xenograft tumors” value is “increased ALPP mRNA expression in erlotinib-responding tumors compared with treatment naïve tumors”.
For the compound `COc1cc2ncnc(Nc3ccc(F)c(Cl)c3)c2cc1OCCCN1CCOCC1` [gefitinib], the “ALPP expression (immunoblots)” value is on record as “ALPP upregulation” in the assay on ALPP [1] (setting [8]); “increased ALPP expression, although to a lesser extent” in the assay with ALPP [1] (EGFR wild-type, KRAS mutant H2291 and H1838); “increased ALPP expression” in the assay with ALPP [1] (TNBC cell lines BT20 and HCC1937, 1 μM). In the assay with ALPP [1] (EGFR mutant H1650 and PC9, 24- and 48-hour treatment), the “surface ALPP expression (mass spectrometry, immunofluorescence)” value was “pronounced upregulation of surface ALPP expression”. Besides, the “surface ALPP by flow cytometry in gefitinib-resistant cells” value in the assay on ALPP [1] (GR HCC827 and PC9, 100 nM) is “majority of gefitinib-resistant cells expressed high level of ALPP”. The “ALPP expression in gefitinib-resistant (GR) cells” value in the assay on ALPP [1] (GR HCC827 and PC9, 100 nM, 48 hours) is listed as “further enhanced ALPP upregulation”. In addition, the “ALPP upregulation in ALPP non-expressing cell lines” value in the assay on ALPP [1] (H1395, H1944, HCC2279, 1 μM, 48 hours) is “did not upregulate ALPP”. Further, in the assay with ALPP [1] (H1650 and HCC827), the “ALPP mRNA levels” value was “concomitant increases in ALPP mRNA levels”. Also, the “ALPP levels in ALPP-positive LUAD cell lines” value in the assay with ALPP [1] (H2291, H1650, H1838, H1651, 1 μM, 48 hours) is on record as “exhibited elevated ALPP levels”. For the same compound, the “ALPP expression after drug washout and re-treatment” value in the assay with ALPP [1] (HCC827 and PC9) is “markedly reduced in the absence of EGFR inhibitors and was restored with the addition of inhibitors”. Moreover, in the assay with ALPP [1] (HCC827 and PC9), the “ALPP and percentage of ALPP+ cells over time” value is “gradual and sustained increase of ALPP and percentage of ALPP^+ cells”. Besides, the “AKT and ERK phosphorylation” value in assay [3] was “repressed phosphorylation of AKT and ERK”. The “FoxO3a binding to ALPP promoter (ChIP-qPCR)” value in the assay with ALPP promoter is on record as “induced FoxO3a binding to ALPP promoter sequences”. Also, in the assay on ALPP [4], the “tumoral ALPP surface expression (IHC)” value is “pronounced increases in tumoral ALPP surface expression”. The “ALPP protein staining in other tissues (IHC)” value in the assay with ALPP [4] (normal tissues) is listed as “negative or showed no appreciable difference compared to the vehicle control”. The FoxO3a cytosol/nucleus distribution entry with FoxO3a (H1650 and HCC827) is “reduced cytosolic FoxO3a and promoted its nuclear translocation”. In addition, the “phosphorylation of FoxO3a (Ser294, Ser425)” value with FoxO3a (H1650 and HCC827, 30 nM, 6 hours) is “repressed phosphorylation of FoxO3a at Ser294 and Ser425 residues”. Further, the “transcription of FOXO3A” value in the assay with FoxO3a (LUAD cells) is recorded as “not affected”.
Take `CS(=O)(=O)CCNCc1ccc(-c2ccc3ncnc(Nc4ccc(OCc5cccc(F)c5)c(Cl)c4)c3c2)o1` [lapatinib]: the “ALPP induction by other EGFR inhibitors (immunoblots)” value with ALPP [1] was “yielded similar results”.
With `C=CC(=O)Nc1cc(Nc2nccc(-c3cn(C)c4ccccc34)n2)c(OC)cc1N(C)CCN(C)C` [osimertinib], the “ALPP induction by other EGFR inhibitors (immunoblots)” value in the assay with ALPP [1] is reported as “yielded similar results”. Further, the “ALPP expression (immunoblots)” value in the assay with ALPP [1] (HCC827 and PC9, 30 nM (FIG. 8K)) is recorded as “increased ALPP expression”. Further, in the assay with ALPP [1] (HCC827 and PC9), the “ALPP expression after drug washout and re-treatment” value was “markedly reduced in the absence of EGFR inhibitors and was restored with the addition of inhibitors”; the “ALPP and percentage of ALPP+ cells over time” value was “gradual and sustained increase of ALPP and percentage of ALPP^+ cells”. Besides, in the assay on ALPP [1] (HCC827 cells), the “fold increase in ALPP expression” value is recorded as around 60 fold. Moreover, in the assay on ALPP [1] (PC9 cells), the “fold increase in ALPP expression” value is listed as around 110 fold. For the same compound, the “cell cycle arrest in G0/G1” value in the assay on HCC827 and PC9 cells [5] is listed as “statistically significantly increased cell cycle arrest in G0/G1”. Moreover, the “emergence of drug-resistant clones under continuous TKI treatment” value in the assay with HCC827 and PC9 cells [6] is recorded as “led to the emergence of drug-resistant clones”. In the assay on ALPP [7] (4 LUAD cell lines, RNAseq data GSE193258), the “Ingenuity Pathway Analysis of upstream regulators” value was “concordant activation of FoxO3a, but not FoxO1”. In addition, the “ALPP gene expression, single cell transcriptomics” value in the assay with ALPP [7] (PC9, 0, 3, 7, 14 days, GSE150949) is on record as “progressive increase in ALPP gene expression”. For the same compound, the “LUAD cells expressing ALPP” value in the assay with ALPP [7] (PC9, day 14, GSE150949) was around 50%. For the same compound, the “phosphorylation of EGFR and FoxO3a” value in the assay with FoxO3a (HCC827 and PC9, 30 nM) was “suppressed the phosphorylation of EGFR and FoxO3a”.
Take “EGF: epidermal growth factor, the endogenous ligand of EGFR”: the “ALPP expression (immunoblots)” value in the assay with ALPP [1] (setting [8]) is recorded as “reduced ALPP expression”. Also, the “ALPP expression in EGF-containing growth medium” value with ALPP [1] (H1650 and H2291, EGF 10 or 20 ng/mL, 24 and 48 hours) is recorded as “drastically reduced”. The “AKT and ERK phosphorylation” value in assay [3] is “induced AKT phosphorylation at serine 473 (Ser473), and ERK phosphorylation at threonine 202 (T202) and tyrosine 204 (Y204) residues”.

These data come from patent US20250339549A1, “METHODS FOR THE DETECTION AND TREATMENT OF NON-SMALL-CELL LUNG CANCER” (Board of Regents, The University of Texas System, priority 2022, published 2025).
